Data as given in patent publication US5846538A, “Immune reactivity to HER-2/neu protein for diagnosis and treatment of malignancies in which the her-2/neu oncogene is associated” (University of Washington, priority 1995, dated 1998).

Experiments:
HLA-A2.1 = biological target: T1, HLA-A2.1 (Homo sapiens, UniProt P04439, D140Y/D185E/D98H/E176V/E277Q/G131W/G231S/I119V/I121R/I166T/I218V/L300P/L318F/N151K/N90K/P208A/P217A/Q86G/Q94H/R138H/R169H/T345S); assay: class I MHC molecule stabilization assay on T2 cells; format: cell-based; conditions: T2 cells incubated 18 hours with peptide, vs medium alone
T1 construct: T2 without exogenous peptide has low expression of HLA-A2 (30%-50%); endogenous in cells; host or cells: T2 (human T-B cell hybrid)

rat sera = assay: ELISA for peptide epitope analysis of sera of immunized rats; format: in vivo; conditions: sera from rats immunized with ECD peptides
Protocol: One group of rats was immunized with a mixture of extracellular domain (ECD) peptides and one group with a mixture of intracellular domain (ICD) peptides. The final group received adjuvant alone. Peptides were administered at a final concentration of 100 μg each in a total volume of 200 μl. The animals underwent 3 immunizations each 14-16 days apart with either CFA or IFA as adjuvant (Sigma ImmunoChemicals, St. Louis, Mo.). 16 days after the third immunization sera was obtained for assessment of immune response.
96 well Immulon 4 plates (Dynatech Laboratories) were incubated overnight at 4° C. with peptides at a concentration of 10 μg/well diluted in PBS alternating with rows of PBS/1%BSA. After incubation, all wells were blocked with PBS/1%BSA, 100 μl/well for 4 hours at room temperature. The plate was washed with PBS/0.5% Tween. After washing, the plate was incubated with rat sera at the following dilutions: 1:50 and 1:100. The sera was diluted in PBS/1%BSA/1% FBS/25 μg/ml mouse IgG/0.01% NaN3 and then serially into PBS/1%BSA. […] Color reaction was read at an optical density of 640 nm until the reading on the most reactive well reached 0.3 OD. The reaction was stopped with 1N HCl and the optical density was read at 450 nm. The OD of each serum dilution was calculated as the OD of the peptide coated wells minus the OD of the PBS/1%BSA coated wells. […]

[1] = tested on: peripheral blood mononuclear cells (PBMC); assay: standard proliferation assay of PBMC (3H-thymidine), CD4+ T cell response; format: cell-based, human
PBL = assay: low frequency event screening assay for CD4+ T cell precursors in PBL of normal individuals; format: cell-based, human
[2] = breast cancer patient A, HER-2/neu status Negative, tetanus toxoid 5 μg/ml, p185 5 μg/ml, peptides 50 μg/ml, 4 days
[3] = breast cancer patient B, HER-2/neu status Positive, tetanus toxoid 5 μg/ml, p185 5 μg/ml, peptides 50 μg/ml, 4 days
[4] = breast cancer patient C, HER-2/neu status Positive, tetanus toxoid 5 μg/ml, p185 5 μg/ml, peptides 50 μg/ml, 4 days
[5] = breast cancer patient D, HER-2/neu status Positive, tetanus toxoid 5 μg/ml, p185 5 μg/ml, peptides 50 μg/ml, 4 days

Row | Molecule | % Increase of class I stabilization on T2 (HLA-A2.1) | antibody responses to individual peptides (rat sera) | Stimulation Index (S.I.) [1, 2] | Stimulation Index (S.I.) [1, 3] | Stimulation Index (S.I.) [1, 4] | Stimulation Index (S.I.) [1, 5] | Stimulation Index (S.I.) ([1]; normal individual 1) | Stimulation Index (S.I.) ([1]; normal individual 2) | Stimulation Index (S.I.) ([1]; normal individual 3) | Stimulation Index (S.I.) ([1]; normal individual 4) | Stimulation Index (S.I.) ([1]; normal individual 5) | CD4+ T cell response in low frequency screening (PBL; one normal individual (FIG. 2)) | individuals with a proliferative response (PBL; seven normal subjects (4 males, 3 females))
1 | CC(C)C[C@H](NC(=O)[C@@H](N)Cc1c[nH]cn1)C(=O)N[C@@H](Cc1ccc(O)cc1)C(=O)N[C@@H](CCC(N)=O)C(=O)NCC(=O)N[C@@H](CS)C(=O)N[C@@H](CCC(N)=O)C(=O)N[C@H](C(=O)N[C@H](C(=O)O)C(C)C)C(C)C [p48-56] | 20% |  |  |  |  |  |  |  |  |  |  |  | 
2 | CC(C)C[C@H](NC(=O)[C@H](CCC(N)=O)NC(=O)[C@@H](NC(=O)[C@@H](NC(=O)[C@H](CO)NC(=O)[C@@H](NC(=O)[C@H](CC(C)C)NC(=O)[C@@H](N)CS)[C@@H](C)O)[C@@H](C)O)C(C)C)C(=O)N[C@H](C(=O)O)C(C)C [p789-797] | 20% |  |  |  |  |  |  |  |  |  |  |  | 
3 | TQRCEKCSKPCARVCYGL [p328-345] |  | substantial responses |  |  |  |  |  |  |  |  |  |  | 
4 | Tetanus Toxoid [reference compound] |  |  | 52 | 36 | 7 | 10 | 6 | 7 | 7 | 10 | 11 |  | 
5 | p185: protein product of the HER-2/neu oncogene, partially purified whole protein from SKBR3 cell membranes |  |  | 13 | < 2 | 4 | 4 | 2 | < 2 | < 2 | 2 | 2 | Positive responses | 57%
